Test system: NI16 promoter fragment 274 bp
Experiment: GUS florescence assay of promoter::GUS plants after SA application, NI16 274 bp fragment
Format: in vivo, Arabidopsis
Conditions: 5 mM SA spray
Excerpt: A binary promoter::reporter plasmid (pNOV2374) for Arabidopsis transformation was constructed. The regulatory/promoter sequence was fused to the GUS reporter gene (Jefferson et al. (1987) EMBO J 6: 3901-3907) by recombination using […] Technology according to the manufacturer's protocol as described in the Instruction Manual (LifeTechnologies, Rockville, Md.). The construct was then transformed into Agrobacterium tumefaciens strains by electroporation. pNOV2374 is a binary vector with a VS1 origin of replication, a copy of the Agrobacterium virg gene in the backbone, and a Basta® resistance selectable marker cassette between the left and right border sequences of the T-DNA. The Basta® selectable marker cassette comprises the Agrobacterium tumefaciens manopine synthase promoter (AtMas) (Barker et al., Plant Mol. Biol. 2, 335-350 (1983)) operably linked to the gene encoding Basta® resistance (i.e., the “BAR” gene, phosphinothricin acetyl transferase) (White et al., Nucl Acids Res 18: 1062 (1990)) and the 35S terminator. The AtMas promoter, the BAR coding sequence, and the 35S terminator are located at nt 4211 to nt 4679, nt 4680 to nt 5228, and nt 5263 to nt 5488, respectively, of pNOV2374. The vector contains […] recombination components, which were introduced into the binary vector backbone by ligating a blunt-ended cassette containing attR sites, ccdB, and a cholramphenicol resistance marker using the […] Vector Conversion System (LifeTechnologies, Rockville, Md.). The […] cassette was located between nt 126 and 1818 of pNOV2374. The promoter cassettes were inserted through an LR recombination reaction whereby the DNA sequence of pNOV2374 between nt 126 and nt 1818 were removed and replaced with the promoter of interest flanked by att sequences. […] The GIG gene (SEQ ID NO:29) contains the ST-LS1 intron from Solanum tuberosum at nt 385 to nt 576 of GUS (obtained from Dr. Stanton […], Purdue University, and described in Narasimhulu, et al. (1996) Plant Cell 8: 873-886.). […] The treatment was applied as a fine mist to the leaves. […] For quantitative analysis of promoter activity following induction treatments or in various Arabidopsis tissues and organs, GUS expression is measured florometrically. Tissue samples were harvested and ground in ice cold GUS extraction buffer (50 mM Na2HPO4 pH 7.0, 5 mM DTT, 1 mM Na2EDTA, 0.1% TritonX100, 0.1% sarcosyl). Ground samples were spun in a microfuge at 10,000 rpm for 15 minutes at 4° C. Following centrifugation, the supernatant was removed for the GUS assay and for a protein concentration determination. To measure GUS activity, the plant extract was assayed in GUS assay buffer (50 mM Na2HPO4 pH 7.0, 5 mM DTT, 1 mM Na2EDTA, 0.1% TritonX100, 0.1% sarcosyl, 1 mM 4-Methylumbelliferyl-beta-D-glucuronic acid dihydrate (MUG)), pre-warmed to 37° C. Reactions were incubated, and 100 uL aliquots were removed at 10 minute intervals over 30 minutes to stop the reaction by adding the 100 uL aliquots to tubes containing 900 uL of 2% Na2CO3. The stopped reactions were then read on a Tecan Spectroflourometer at 365 nm excitation and 455 emission wavelengths. Protein concentrations were determined using the BCA assay following the manufacturer's protocol. GUS activity is expressed as pmol MU/mg protein/min.

O=C(O)c1ccccc1O [SA, salicylic acid]
GUS Activity Induced by SA (2 h): 27.5 pmol/mg protein/min
GUS activity Fold-change relative to T0 (uninduced) (2 h): 1.4 fold
GUS Activity Induced by SA (4 h): 58.7 pmol/mg protein/min
GUS activity Fold-change relative to T0 (uninduced) (4 h): 3.0 fold
GUS Activity Induced by SA (8 h): 150.8 pmol/mg protein/min
GUS activity Fold-change relative to T0 (uninduced) (8 h): 7.8 fold
GUS Activity Induced by SA (24 h): 230.3 pmol/mg protein/min

Reference: patent publication US7199286B2, “Plant-derived novel pathogen and SAR-induction chemical induced promoters, and fragments thereof” (Syngenta Participations AG, priority 1999, dated 2007)
